Laboratory results from patent US20080214621A1, “Cycloalkyl Lactam Derivatives As Inhibitors Of 11-Beta-Hydroxysteroid Dehydrogenase 1” (priority 2004, published 2008).

Molecular target: Human 11β-HSD type 1 (Homo sapiens, UniProt P28845)
Assay: 11β-HSD type 1 enzyme assay (NADPH production by fluorescence)
Format: biochemical
Details: recombinant human 11β-HSD type 1 enzyme, cortisol/NADP substrate, three hour incubation at room temperature
Experimental: Human 11β-HSD type 1 activity is measured by assaying NADPH production by fluorescence assay. Solid compounds are dissolved in DMSO to a concentration of 10 mM. Twenty microliters of each are then transferred to a column of a 96-well polypropylene Nunc plate where they are further diluted 50-fold followed by subsequent two-fold titration, ten times across the plate with additional DMSO using a Tecan Genesis 200 automated system. Plates are then transferred to a Tecan Freedom 200 system with an attached Tecan Temo 96-well head and an Ultra 384 plate reader. Reagents are supplied in 96-well polypropylene Nunc plates and are dispensed individually into black 96-well Molecular Devices High Efficiency assay plates (40 μL/well capacity) in the following fashion: 9 μL/well of substrate (2.22 mM NADP, 55.5 μM Cortisol, 10 mM Tris, 0.25% Prionex, 0.1% Triton X100), 3 μL/well of water to compound wells or 3 μL to control and standard wells, 6 μL/well recombinant human 11β-HSD type 1 enzyme, 2 μL/well of compound dilutions. […] Final DMSO concentration is 0.5% for all compounds, controls and standards. Plates are then placed on a shaker by the robotic arm of the Tecan for 15 seconds before being covered and stacked for a three hour incubation period at room temperature. Upon completion of this incubation, the Tecan robotic arm removes each plate individually from the stacker and places them in position for addition of 5 μL/well of a 250 μM carbenoxolone solution to stop the enzymatic reaction. Plates are then shaken once more for 15 seconds then placed into an Ultra 384 microplate reader (355EX/460EM) for detection of NADPH fluorescence.

Human 11β-HSD type 1, sequence (P28845 whole entry): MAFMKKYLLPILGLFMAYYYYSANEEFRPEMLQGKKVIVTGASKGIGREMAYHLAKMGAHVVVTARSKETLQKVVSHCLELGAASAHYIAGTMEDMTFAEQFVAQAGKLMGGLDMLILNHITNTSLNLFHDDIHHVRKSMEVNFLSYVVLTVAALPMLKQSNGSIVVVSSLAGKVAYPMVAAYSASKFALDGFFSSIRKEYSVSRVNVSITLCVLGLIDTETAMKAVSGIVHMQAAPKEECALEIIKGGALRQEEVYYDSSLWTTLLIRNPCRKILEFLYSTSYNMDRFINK

Structure (SMILES)	IC50
COc1ccc2cc(CC3CCCN([C@H]4CC[C@H](O)CC4)C3=O)ccc2c1 (stereo partly shown) [Example 34]	353 nM
O=C1C(Cc2ccc3ccccc3c2Br)CCN1C1CCCCC1 (stereo not shown) [Example 2, 3-(1-Bromo-naphthalen-2-ylmethyl)-1-cyclohexyl-pyrrolidin-2-one]	354 nM
O=C1C(Cc2ccc3cc(-c4c(Cl)cccc4Cl)ccc3c2)CCN1C1CCCCC1 (stereo not shown) [Example 44]	344 nM
COc1ccc2cc(CC3CCN(C4CCCCC4)C3=O)ccc2c1 (stereo not shown) [Example 4, 1-Cyclohexyl-3-(6-methoxy-naphthalen-2-ylmethyl)-pyrrolidin-2-one]	134 nM
COc1ccc2cc(CC3CCN([C@H]4CC[C@@H](O)CC4)C3=O)ccc2c1 (relative stereo) [Example 8, 1-(cis-4-Hydroxy-cyclohexyl)-3-(6-methoxy-naphthalen-2-ylmethyl)-pyrrolidin-2-one]	247 nM
COc1ccc2c(Cl)c(CC3CCN(C4CCCCC4)C3=O)ccc2c1 (stereo not shown) [Example 24, 3-((1-chloro-6-methoxynaphthalen-2-yl)methyl)-1-cyclohexylpyrrolidin-2-one]	213 nM
COc1ccc2ccccc2c1CC1CCCN(C2CCCCC2)C1=O (stereo not shown) [Example 40, 1-Cyclohexyl-3-(2-methoxy-naphthalene-1-ylmethyl)-piperidin-2-one]	423 nM
